In publication PMC11219871, “Epigenetic-based differentiation therapy for Acute Myeloid Leukemia” (Nature Communications, 2024):
Values joined by “and” are separate entries in the source; they are usually repeats but may differ in a detail not shown here. Equal entries are not always repeated.

Experiments:
MV4-11 = test: Cell-cycle analysis; format: cell-based, human; settings: MV4-11, 48 hours
Procedure: (§1) […] Next, the cells were washed twice with PBS and resuspended in 0.2% Tween 20 in PBS and 0.5 mg/mL Rnase A (Ribonuclease A Type III-A from bovine pancreas, Cat No. R5125, Sigma), and then incubated for 30 min at 37 °C. Subsequently, the cells were stained with 25 μg/mL of propidium iodide (Cat No P4170, Sigma) and analyzed using a BD FACSCanto flow cytometer (Becton Dickinson, San Jose, CA, USA).

ML-2 = test: Cell-cycle analysis; format: cell-based, human; settings: ML-2, treatment for 48 hours; replicates 1-3 (Figure 2F)
Procedure: as §1

MOLM-13 = test: Cell-cycle analysis; format: cell-based, human; settings: MOLM-13, 48 hours
Procedure: as §1

[1] = system: MV4-11 i.v. in BALB/cA Rag2-/-γc-/- mice; test: Intravenous xenograft model (survival, CD11b in blood, body weight); format: in vivo, mouse; settings: for body weight of mice: intravenous MV4-11 AML mouse model, individual mice
Procedure: (§2) The human AML MV4-11 and MOLM-13 xenograft mice models were generated by intravenous (i.v.) injection of 10 × 10^6 (MV4-11) or 1 × 10^4 (MOLM-13) cells diluted in 100 µL of saline solution in the tail vein of a 6-8-week-old female BALB/cA Rag2^−/−γc^−/− mice (n = 10). Treatment started 7 or 1 day after MV4-11 or MOLM-13 cells injection, respectively. MV4-11 and MOLM-13 mice were treated with i.p. 10 mg/kg of CM-444 and CM-1758 during 5 consecutive days followed by 2 resting days for 7 and 2 weeks, respectively. The control group received only 80% saline solution, 10% DMSO and 10% Tween 20 (diluents of CM-444 and CM-1758). The mice weight was controlled and remained stable during the treatment. Statistical results were calculated using the statistical software Medcalc. CD11b levels in blood samples from an intravenous MV4-11 mice model were measured by flow cytometry, as described above.

[2] = system: MOLM-13 i.v. in BALB/cA Rag2-/-γc-/- mice; test: as above; format: in vivo, mouse; settings: for Body weight: intravenous MOLM-13 AML mouse model, individual mice
Procedure: as §2

JMJD1A = biological target: T1, JMJD1A (Homo sapiens, UniProt Q9Y4C1); test: Epigenetic panel (BPS Bioscience); format: biochemical
T1 construct: purchased BPS Bioscience; Eurofins (HDAC4, 5, 7-11)
Source text: (§3) The selectivity of CM-444 and CM-1758 against other epigenetic targets, including histone demethylase (JMJD2A, JMJD2B, JMJD2C, JMJD2D, JMJD2E, JMJD3, JMJD1A, LSD1, Jarid1A, Jarid1B, Jarid1C, FBXL10, FBXL11, JHDM1D, JMJD1B, PHF8, LSD2 and UTX); histone acetyltransferases (GCN5, P300); histone methyltransferases (G9a, GLP, MLL1, SET7/9, SUV39H1, SUV39H2, PRMT1, PRMT3, PRMT4, PRMT5, PRMT6, PRMT8, PRMT9, NSD1, NSD2, EZH1, EZH2, SETDB1, SETD2, SET8, SUV4-20H1, SMYD2, SMYD3, DOT1L, EZH2 (A677G), EZH2 (A677G), EZH2 (A738T), EZH2 (Y641S), EZH2 (P132S), EZH2 (Y641C), EZH2 (Y641F), EZH2 (Y641H), EZH2 (Y641N)); bromodomains (ATAD2B, ATAD2A, BRD1, BRD9, BPTF/FALZ, CeCR2, BRPF3, BRD3 (BD1 + BD2), BAZ2B, WDR9, TAF1 (BD2), TAF1L (BD2), TAF1L (BD1 + BD2), BRD2 (BD1), BRD2 (BD2), BRD2 (BD1 + BD2), BRD3 (BD1), BRD3 (BD2), BRD4 (BD1), BRD4 (BD2), BRD4 (BD1 + BD2), BRDT (BD1), BRDT (BD1 + BD2), CREBBP, SMARCA2A, SMARCA4/BRG1); DNA methyltranferases (DNMT1, DNMT3A/3L and DNMT3B/3L), and sirtuin histone deacetylases (SIRT1, SIRT2, SIRT3, SIRT5 and SIRT6), were determined by BPS Bioscience (http://www.bpsbioscience.com/index.ph). Binding experiments were performed in duplicate at a concentration of 10 μM.

PRMT3 = biological target: T2, PRMT3 (Homo sapiens, UniProt O60678); test: Epigenetic panel (BPS Bioscience); format: biochemical
T2 construct: purchased BPS Bioscience; Eurofins (HDAC4, 5, 7-11)
T2 sequence (O60678 whole entry): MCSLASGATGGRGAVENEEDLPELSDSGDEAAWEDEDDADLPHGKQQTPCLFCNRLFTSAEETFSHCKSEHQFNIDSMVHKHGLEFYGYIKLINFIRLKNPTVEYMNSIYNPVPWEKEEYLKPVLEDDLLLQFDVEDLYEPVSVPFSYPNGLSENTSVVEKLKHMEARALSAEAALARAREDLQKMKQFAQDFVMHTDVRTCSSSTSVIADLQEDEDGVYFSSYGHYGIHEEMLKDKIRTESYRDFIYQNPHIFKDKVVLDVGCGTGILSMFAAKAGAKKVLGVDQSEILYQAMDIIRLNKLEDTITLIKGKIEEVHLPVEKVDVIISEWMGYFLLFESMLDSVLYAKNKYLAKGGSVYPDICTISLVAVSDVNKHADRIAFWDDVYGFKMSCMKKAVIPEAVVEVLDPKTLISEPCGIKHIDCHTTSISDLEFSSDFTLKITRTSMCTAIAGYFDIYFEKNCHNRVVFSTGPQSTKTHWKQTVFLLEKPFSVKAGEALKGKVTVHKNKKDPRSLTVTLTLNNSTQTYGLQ
Source text: as §3

PRMT6 = biological target: T3, PRMT6 (Homo sapiens, UniProt Q96LA8); test: Epigenetic panel (BPS Bioscience); format: biochemical
T3 construct: purchased BPS Bioscience; Eurofins (HDAC4, 5, 7-11)
Source text: as §3

SIRT1 = biological target: T4, SIRT1 (Homo sapiens, UniProt Q96EB6); test: Epigenetic panel (BPS Bioscience); format: biochemical
T4 construct: purchased BPS Bioscience; Eurofins (HDAC4, 5, 7-11)
Source text: as §3

P300 = biological target: T5, P300 (Homo sapiens, UniProt Q09472); test: Epigenetic panel (BPS Bioscience); format: biochemical
T5 construct: purchased BPS Bioscience; Eurofins (HDAC4, 5, 7-11)
T5 sequence (Q09472 whole entry): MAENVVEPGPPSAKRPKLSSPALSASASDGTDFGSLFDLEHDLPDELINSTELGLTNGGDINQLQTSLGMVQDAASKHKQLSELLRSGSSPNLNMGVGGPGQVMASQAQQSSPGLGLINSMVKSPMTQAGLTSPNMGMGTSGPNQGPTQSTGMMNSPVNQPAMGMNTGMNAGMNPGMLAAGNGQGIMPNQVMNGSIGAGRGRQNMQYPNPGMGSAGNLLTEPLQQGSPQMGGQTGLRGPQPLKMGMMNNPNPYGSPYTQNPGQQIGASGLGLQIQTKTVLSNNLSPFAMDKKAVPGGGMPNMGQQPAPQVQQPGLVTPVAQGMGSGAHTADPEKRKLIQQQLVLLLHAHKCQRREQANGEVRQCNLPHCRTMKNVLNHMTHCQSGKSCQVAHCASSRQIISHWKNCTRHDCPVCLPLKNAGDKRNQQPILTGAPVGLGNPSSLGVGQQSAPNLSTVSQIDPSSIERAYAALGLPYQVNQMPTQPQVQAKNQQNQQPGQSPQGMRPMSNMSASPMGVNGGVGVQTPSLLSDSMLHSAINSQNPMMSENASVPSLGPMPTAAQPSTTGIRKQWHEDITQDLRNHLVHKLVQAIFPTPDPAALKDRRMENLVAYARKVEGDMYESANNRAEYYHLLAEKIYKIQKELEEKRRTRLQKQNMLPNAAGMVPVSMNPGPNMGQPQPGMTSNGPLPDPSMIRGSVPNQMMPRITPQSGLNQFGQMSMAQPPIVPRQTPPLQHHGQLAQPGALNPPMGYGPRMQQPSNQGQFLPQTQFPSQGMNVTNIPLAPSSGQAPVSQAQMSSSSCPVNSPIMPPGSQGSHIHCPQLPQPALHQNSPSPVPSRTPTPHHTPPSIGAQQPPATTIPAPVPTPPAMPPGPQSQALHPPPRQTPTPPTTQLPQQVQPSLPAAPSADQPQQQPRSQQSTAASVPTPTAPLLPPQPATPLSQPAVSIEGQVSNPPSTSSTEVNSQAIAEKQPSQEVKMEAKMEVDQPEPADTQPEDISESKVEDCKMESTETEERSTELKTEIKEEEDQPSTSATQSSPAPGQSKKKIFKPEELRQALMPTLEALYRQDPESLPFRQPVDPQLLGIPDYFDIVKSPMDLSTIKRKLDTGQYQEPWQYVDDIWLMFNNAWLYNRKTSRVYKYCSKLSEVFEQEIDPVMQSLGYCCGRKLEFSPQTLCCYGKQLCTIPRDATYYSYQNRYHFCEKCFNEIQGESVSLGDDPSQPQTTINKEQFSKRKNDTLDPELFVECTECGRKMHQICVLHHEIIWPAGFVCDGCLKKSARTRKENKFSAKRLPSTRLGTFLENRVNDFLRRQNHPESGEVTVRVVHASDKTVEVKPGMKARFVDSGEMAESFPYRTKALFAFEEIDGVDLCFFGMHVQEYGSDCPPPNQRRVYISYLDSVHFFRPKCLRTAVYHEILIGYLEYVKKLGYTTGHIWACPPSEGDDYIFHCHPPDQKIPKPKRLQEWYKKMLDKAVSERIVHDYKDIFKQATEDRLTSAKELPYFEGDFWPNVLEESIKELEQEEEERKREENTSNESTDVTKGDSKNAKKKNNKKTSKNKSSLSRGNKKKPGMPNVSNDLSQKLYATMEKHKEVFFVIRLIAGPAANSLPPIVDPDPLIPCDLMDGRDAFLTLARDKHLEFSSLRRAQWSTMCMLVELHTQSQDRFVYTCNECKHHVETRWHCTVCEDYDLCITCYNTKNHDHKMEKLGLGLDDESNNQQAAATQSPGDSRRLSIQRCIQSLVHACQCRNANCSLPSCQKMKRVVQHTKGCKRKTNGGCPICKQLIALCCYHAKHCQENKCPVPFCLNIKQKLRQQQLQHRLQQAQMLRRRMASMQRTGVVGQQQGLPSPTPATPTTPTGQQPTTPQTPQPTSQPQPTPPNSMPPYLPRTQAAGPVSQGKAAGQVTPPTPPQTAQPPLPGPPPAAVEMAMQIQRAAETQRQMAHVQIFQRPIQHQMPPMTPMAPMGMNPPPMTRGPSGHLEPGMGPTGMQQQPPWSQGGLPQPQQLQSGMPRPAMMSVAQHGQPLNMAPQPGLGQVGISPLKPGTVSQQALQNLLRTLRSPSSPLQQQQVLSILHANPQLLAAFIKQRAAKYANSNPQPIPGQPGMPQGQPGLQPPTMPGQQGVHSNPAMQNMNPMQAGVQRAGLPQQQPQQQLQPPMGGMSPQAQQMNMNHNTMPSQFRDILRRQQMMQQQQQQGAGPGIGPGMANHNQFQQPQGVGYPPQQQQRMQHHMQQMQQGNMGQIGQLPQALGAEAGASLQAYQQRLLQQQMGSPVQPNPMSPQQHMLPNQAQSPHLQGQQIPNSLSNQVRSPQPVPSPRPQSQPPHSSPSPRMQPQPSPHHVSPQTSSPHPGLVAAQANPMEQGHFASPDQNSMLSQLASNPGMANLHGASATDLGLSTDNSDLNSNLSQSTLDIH
Source text: as §3

Jarid1B = biological target: T6, Jarid1B (Homo sapiens, UniProt Q9UGL1); test: Epigenetic panel (BPS Bioscience); format: biochemical
T6 construct: purchased BPS Bioscience; Eurofins (HDAC4, 5, 7-11)
T6 sequence (Q9UGL1 whole entry): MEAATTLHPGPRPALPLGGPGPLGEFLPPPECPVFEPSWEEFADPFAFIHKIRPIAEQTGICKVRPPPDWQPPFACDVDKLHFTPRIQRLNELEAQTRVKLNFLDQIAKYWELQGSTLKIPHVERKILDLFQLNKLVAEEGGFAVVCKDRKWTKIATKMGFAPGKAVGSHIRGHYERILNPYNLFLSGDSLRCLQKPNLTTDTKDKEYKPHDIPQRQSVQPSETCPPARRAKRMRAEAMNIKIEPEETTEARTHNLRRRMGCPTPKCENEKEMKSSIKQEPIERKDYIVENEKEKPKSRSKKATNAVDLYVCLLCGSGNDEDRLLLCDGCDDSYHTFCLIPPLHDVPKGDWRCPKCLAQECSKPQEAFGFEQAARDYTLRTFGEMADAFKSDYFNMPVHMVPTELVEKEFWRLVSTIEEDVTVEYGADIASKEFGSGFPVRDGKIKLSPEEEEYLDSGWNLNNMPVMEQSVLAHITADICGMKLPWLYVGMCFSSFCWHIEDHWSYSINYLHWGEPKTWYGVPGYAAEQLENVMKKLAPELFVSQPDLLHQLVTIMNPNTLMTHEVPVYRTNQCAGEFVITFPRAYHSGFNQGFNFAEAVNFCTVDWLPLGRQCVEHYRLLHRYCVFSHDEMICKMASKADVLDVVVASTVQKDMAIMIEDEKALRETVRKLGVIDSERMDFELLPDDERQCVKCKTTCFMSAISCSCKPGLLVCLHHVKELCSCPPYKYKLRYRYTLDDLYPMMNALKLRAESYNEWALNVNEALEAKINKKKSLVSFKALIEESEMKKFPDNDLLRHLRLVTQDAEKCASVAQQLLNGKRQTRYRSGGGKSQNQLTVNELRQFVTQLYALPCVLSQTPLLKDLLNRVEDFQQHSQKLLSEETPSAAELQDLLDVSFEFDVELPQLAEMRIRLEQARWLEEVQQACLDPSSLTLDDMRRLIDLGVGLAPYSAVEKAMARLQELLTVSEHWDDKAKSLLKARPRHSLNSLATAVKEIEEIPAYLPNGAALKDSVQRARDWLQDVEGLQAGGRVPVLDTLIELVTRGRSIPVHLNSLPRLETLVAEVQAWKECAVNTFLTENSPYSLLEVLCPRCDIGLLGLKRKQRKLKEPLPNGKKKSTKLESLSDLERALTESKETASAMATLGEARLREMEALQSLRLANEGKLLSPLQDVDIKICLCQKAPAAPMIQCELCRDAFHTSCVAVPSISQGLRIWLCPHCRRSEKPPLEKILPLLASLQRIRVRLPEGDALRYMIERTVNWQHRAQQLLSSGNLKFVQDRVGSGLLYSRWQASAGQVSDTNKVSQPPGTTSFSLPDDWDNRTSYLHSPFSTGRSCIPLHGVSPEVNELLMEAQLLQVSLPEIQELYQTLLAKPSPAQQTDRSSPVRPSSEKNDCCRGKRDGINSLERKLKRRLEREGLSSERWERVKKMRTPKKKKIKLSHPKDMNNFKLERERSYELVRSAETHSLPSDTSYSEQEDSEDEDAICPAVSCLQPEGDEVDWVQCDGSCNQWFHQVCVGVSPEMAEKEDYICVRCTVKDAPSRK
Source text: as §3

EZH2 (Y641S) = biological target: T7, EZH2 (Y641S) (Homo sapiens, UniProt Q15910, Y641S); test: Epigenetic panel (BPS Bioscience); format: biochemical
T7 construct: purchased BPS Bioscience; Eurofins (HDAC4, 5, 7-11)
Source text: as §3

JMJD2A = biological target: T8, JMJD2A (Homo sapiens, UniProt O75164); test: Epigenetic panel (BPS Bioscience); format: biochemical
T8 construct: purchased BPS Bioscience; Eurofins (HDAC4, 5, 7-11)
Source text: as §3

SIRT6 = biological target: T9, SIRT6 (Homo sapiens, UniProt Q8N6T7); test: Epigenetic panel (BPS Bioscience); format: biochemical
T9 construct: purchased BPS Bioscience; Eurofins (HDAC4, 5, 7-11)
T9 sequence (Q8N6T7 whole entry): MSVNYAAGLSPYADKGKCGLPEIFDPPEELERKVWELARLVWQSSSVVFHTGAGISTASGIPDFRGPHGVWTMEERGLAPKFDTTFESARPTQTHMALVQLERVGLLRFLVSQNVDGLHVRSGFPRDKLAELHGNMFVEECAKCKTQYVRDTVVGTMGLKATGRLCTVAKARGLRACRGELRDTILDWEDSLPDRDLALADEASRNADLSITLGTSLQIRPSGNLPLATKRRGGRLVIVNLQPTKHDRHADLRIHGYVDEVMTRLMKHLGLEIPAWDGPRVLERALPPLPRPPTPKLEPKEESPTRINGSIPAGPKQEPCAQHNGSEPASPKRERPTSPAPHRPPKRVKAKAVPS
Source text: as §3

SIRT5 = biological target: T10, SIRT5 (Homo sapiens, UniProt Q9NXA8); test: Epigenetic panel (BPS Bioscience); format: biochemical
T10 construct: purchased BPS Bioscience; Eurofins (HDAC4, 5, 7-11)
T10 sequence (Q9NXA8 37-310): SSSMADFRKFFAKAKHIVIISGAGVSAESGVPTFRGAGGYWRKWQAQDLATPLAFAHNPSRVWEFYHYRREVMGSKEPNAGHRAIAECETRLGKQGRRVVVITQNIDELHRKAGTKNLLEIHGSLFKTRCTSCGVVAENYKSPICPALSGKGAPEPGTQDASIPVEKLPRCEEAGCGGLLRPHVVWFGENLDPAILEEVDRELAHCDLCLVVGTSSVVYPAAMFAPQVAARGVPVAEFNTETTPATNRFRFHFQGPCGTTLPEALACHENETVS
Source text: as §3

EZH2 = biological target: T11, EZH2 (Homo sapiens, UniProt Q15910); test: Epigenetic panel (BPS Bioscience); format: biochemical
T11 construct: purchased BPS Bioscience; Eurofins (HDAC4, 5, 7-11)
Source text: as §3

COc1cc2nc(-c3cc(C)oc3C)cc(NCC3CCN(c4ncc(C(=O)NO)cn4)CC3)c2cc1OC [CM-1758, 2-[4-[[[2-(2,5-dimethyl-3-furyl)-6,7-dimethoxy-4-quinolyl]amino]methyl] -1-piperidyl]pyrimidine-5-carbohydroxamic acid]
Cell number (%) G1 (MV4-11): 84.98% and 89.31% and 85.09% | Cell number (%) G2/M (MV4-11): 8.40% and 10.00% and 4.67% | Cell number (%) S (MV4-11): 5.02% and 6.02% and 6.51% | Cell number (%) G1 (ML-2): 90.78% and 86.19% and 89.03% | Cell number (%) G2/M (ML-2): 6.71% and 3.95% and 9.23% | Cell number (%) S (ML-2): 5.26% and 4.58% and 4.26% | Cell number (%) G1 (MOLM-13): 94.79% and 97.36% and 97.43% | Cell number (%) G2/M (MOLM-13): 0.72% and 2.84% and 0.69% | Cell number (%) S (MOLM-13): 2.37% and 1.95% and 1.85% | CD11b in blood samples ([1]; MV4-11 i.v., 10 mg/kg i.p.): statistically significant increase in CD11b | overall survival (OS) ([1]; MV4-11 i.v., 10 mg/kg i.p., 5 days on/2 off, 7 weeks): increased overall survival | body weight of mice ([1]; day 20, in g (unit assumed)): 25 and 24.9 and 24 and 26.8 and 24.5 and 23.3 and 20.4 and 22.9 and 24.6 and 23.8 and 22.8 and 23 | body weight of mice ([1]; day 23, in g (unit assumed)): 23.9 and 24.6 and 28.5 and 27.5 and 23.5 and 23 and 19.4 and 23.1 and 23.8 and 22.2 and 22.5 and 22.4 | body weight of mice ([1]; day 25): 23.7 (2×) and 23.8 and 27.9 and 26.9 and 23.2 and 22.7 and 19.6 and 22.8 and 21.9 and 22.2 and 22 | body weight of mice ([1]; day 28): 23.6 (2×) and 23.8 and 26.5 and 26.6 and 23.2 and 23.1 and 18.9 and 21.4 and 21.2 and 21.7 | body weight of mice ([1]; day 30): 23.1 and 23.9 and 25.7 and 26.6 and 22.3 and 22.6 (2×) and 18.6 and 21 (2×) and 22.1 | body weight of mice ([1]; day 31): 23.5 and 22.8 and 25.9 and 26.7 and 22.3 and 22.1 (2×) and 18.3 and 21.8 and 21.3 and 17.9 | body weight of mice ([1]; day 35, in g (unit assumed)): 24 and 22.9 and 26.1 and 26.8 and 22.4 and 23.1 and 19.4 and 22.5 and 22 and 22.1 | body weight of mice ([1]; day 37): 23.4 and 24.4 (2×) and 27.2 and 26.3 and 22.9 and 18.3 and 23.1 and 22 and 22.7 | body weight of mice ([1]; day 42, in g (unit assumed)): 25.8 and 24.7 and 28.1 and 26.1 and 23.8 and 24.5 and 20.5 and 23.3 | body weight of mice ([1]; day 44, in g (unit assumed)): 26 and 25.3 and 28.3 | CD11b levels in blood samples ([1]; mice engrafted intravenously with MV4-11 cells, individual mice (Fig 3E)): 26.3% and 16.2% and 21.1% and 11.9% and 23.1% and 11% and 20.5% | Survival time (Kaplan-Meier, event = 1) ([1]; mice engrafted with MV4-11 cells intravenously, individual mice (Fig 3D)): 25 days and 32 days and 46 days and 48 days and 53 days and 57 days | overall survival (OS) ([2]; MOLM-13 i.v., 10 mg/kg i.p., 5 days on/2 off, 2 weeks): not having observed an increase in OS | Body weight ([2]; day 4): 25.4 and 23.9 (2×) and 24.4 and 22.7 (2×) and 23.8 and 21.5 and 23 and 21.9 | Body weight ([2]; day 6): 25.4 and 23 and 24.3 and 22 and 22.6 and 21.4 and 22.8 (2×) and 22.1 and 22.4 | Body weight ([2]; day 8, in g (unit assumed)): 24.7 and 22.7 and 23.8 and 22.6 and 21.8 and 21.7 and 22.1 and 21.9 and 22 and 22.8 | Body weight ([2]; day 11): 24.3 and 22.3 and 23.6 and 21.6 and 21.7 (2×) and 20.7 and 21 and 21.5 and 22.6 | Body weight ([2]; day 13): 24.3 and 22.6 and 23.5 and 21.5 (2×) and 22.1 and 21.4 and 21.9 and 21.7 and 22.4 | inhibition at 10 µM (JMJD1A): 12% | inhibition at 10 µM (PRMT3): 0% | inhibition at 10 µM (PRMT6): 0% | inhibition at 10 µM (SIRT1): 1% | inhibition at 10 µM (P300): 0% | inhibition at 10 µM (Jarid1B): 29% | inhibition at 10 µM (EZH2 (Y641S)): 24% | inhibition at 10 µM (JMJD2A): 20% | inhibition at 10 µM (SIRT6): 4% | inhibition at 10 µM (SIRT5): 2% | inhibition at 10 µM (EZH2): 0%
